Earlier results in patent US10004757B1, “Oral supplement” (Nutri Vida, LLC, priority 2017, dated 2018).

Settings: taken over the daily recommended amount

With `O=C(O)c1cccnc1` [Niacin, nicotinic acid] as the compound, how does the decrease in triglycerides read?
Its decrease in triglycerides is 30%.
